Experimental data published in patent US10724028B2, “Ligand-binding fiber and cell culture substrate using said fiber” (NISSAN CHEMICAL INDUSTRIES, LTD., priority 2014, dated 2020).

System: TPO-dependent human megakaryoblastic leukemia cell line (UT-7/TPO)
Assay: Cell culture evaluation: UT-7/TPO cell number count using WST-8 after 6 days of culture on the substrate
Type: cell-based
Method: The ligand-bonded fiber 1 of Example 1 and the fiber of Comparative Example 1 were subjected to cell culture evaluation. As a control for the evaluation, a system in which PSt substrate was configured (positive control: thrombopoietin (TPO) (10 ng/mL) was added to medium, negative control: medium alone) was used. In the following, the CO2 concentration (%) of the CO2 incubator is shown by % by volume of CO2 in the atmosphere.
As the cell, TPO-dependent human megakaryoblastic leukemia cell line (UT-7/TPO; Komatsu et. al., Blood, 1996, 87, pp. 4552-4560) was used. For cell culture, IMDM (Iscove's Modified Dulbecco's Medium) medium (manufactured by Sigma-Aldrich) containing 10% (v/v) FBS and 10 ng/mL TPO (Thrombopoietin, manufactured by PeproTech) was used. The cells were cultured for not less than 2 days in a CO2 incubator at 37° C. while keeping 5% carbon dioxide concentration. The obtained culture medium was centrifuged (manufactured by TOMY SEIKO Co., Ltd., LC-200, 1500 rpm/3 min, room temperature), the supernatant was removed, the above-mentioned IMDM medium free of TPO was added to prepare a cell suspension. The “FBS” here means fetal bovine serum (manufactured by Biological Industries).
The ligand-bonded fiber of Example 1, the fiber of Comparative Example 1, and PSt substrate (for positive control and negative control) were configured in 6 well flat-bottom microplates (manufactured by AS ONE Corporation). […]
After 6 days of cell culture, the cell culture medium was recovered from respective wells in which the ligand-bonded fibers 1-3 of Examples 1-3, the fiber of Comparative Example 1, the substrate of Comparative Example 2, and PSt substrates for positive control and negative control were configured. […] After standing in a CO2 incubator at 37° C. for 120 min, the absorbance at 450 nm was measured by an absorption spectrometer (manufactured by Molecular Devices, SpectraMax). […]
After 6 days of culture, the cell number was counted in the same manner as above by using WST-8. […]

thrombopoietin [positive control]
100%: cell number (%) cell culture, first time (Table 3, UT-7/TPO, 6 days culture, positive control (TPO 10 ng/mL) as 100%) | cell number (%) cell culture, third time (Table 3, same substrate reused a third time, fresh UT-7/TPO cells, 6 days, positive control as 100%) | cell number (%) cell culture, second time (Table 3, same substrate reused after PBS wash, fresh UT-7/TPO cells, 6 days, positive control as 100%)
